Patent US11786497B2, “High penetration prodrug compositions of retinoids and retinoids-related compounds” (Techfields Pharma Co., Ltd., priority 2007, dated 2023)
Values belong to the compound of their own block, whether it stands above or below them.

Experiments:
[1] = In vitro penetration across human skin in modified Franz cells
Method: In each case, the vehicle was a pH 7.4 phosphate buffer (0.2 M).
Penetration rates of HPPs and their parent drugs through human skin were measured in vitro by modified Franz cells. A Franz cell had two chambers, the top sample chamber and the bottom receiving chamber. The human skin tissue (360-400 μm thick) that separated the top and the receiving chambers was isolated from the anterior or posterior thigh areas.
A compound tested (0.2 mL, 5% in 0.2 M phosphate buffer, pH 7.4) were added to the sample chamber of a Franz cell. The receiving chamber contains 2 ml of 2% bovine serum albumin in saline which was stirred at 600 rpm. The amount of the tested compound penetrating the skin was determined by high-performance liquid chromatography (HPLC) method.

[2] = test system: human acute promyelocytic leukemia(APL) line; experiment: Survival of mice implanted with human acute promyelocytic leukemia line; format: in vivo; conditions: for None Disease Rate at day 160: animals out of 7; for Life Elongation Rate: control = 100; for Survival Period: n=7
Excerpt: For evaluation of antitumor activity, a human acute promyelocytic leukemia(APL) line derived from a patient with acute promyelocytic leukemia (APL) was implanted into mice.

Solubility in water = format: physicochemical
Method: (§1) 30 g (0.1 mol) of sodium 9-cis-retinoate was dissolved in 100 ml of acetonitrile. 26.1 g (0.1 mol) of 2-Bromo-N,N-diethylethylamine·HBr was added into the reaction mixture. The mixture was stirred for overnight at RT. The solvents were evaporated off. 200 ml of ethanol was added into the residue. The solid was removed by filtration. The solution was evaporated to dryness. 100 ml of ethyl acetate was added into the reaction mixture. Hexane (100 ml) was added. The solid product was collected by filtration. After drying, it yielded 36 g of the desired product (75%). Hygroscopic product; solubility in water: 30 mg/ml; elementary analysis: C26H42BrNO2; MW: 480.52; calculated % C: 64.99; H: 8.81; Br: 16.63; N: 2.91; O: 6.66; found % C: 65.03; H: 8.80; Br: 16.60; N: 2.89; O: 6.68.
as §1, with “13-cis-retinoate” for “9-cis-retinoate”, “Hygroscopic product; solubility in water: 30 mg/ml; elementary analysis: C26H42BrNO2; MW: 480.52; calculated % C: 64.99; H: 8.81; Br: 16.63; N: 2.91; O: 6.66; found % C: 65.03; H: 8.80; Br: 16.60; N: 2.89; O: 6.68.” left out

[3] = Irritative effect or discomfort on skin of mice after topical application; format: in vivo; conditions: 0.1 ml of 0.5% in pH 7.4 phosphate buffer to back of nude mice twice per day, 1 week
Method: Irritative effect or discomfort in the skin of mice of HPPs of retinoids or retinoid-related compounds was evaluated during a period of 1 week after the topical application of 0.1 ml of 0.5% of the respective test drug in pH 7.4 phosphate buffer (0.2 M) to the back of nude mice twice per day.

[4] = Conversion of HPPs to parent drugs in human plasma (half life); format: in vitro ADME; conditions: 37° C., HPLC
Method: HPPs of retinoids or retinoid-related compounds converted to the parent retinoids or retinoid-related compounds quickly in good yield in human plasma.
A HPP of retinoids or retinoid-related compound (10 mg) was dissolved in 0.1 ml of 0.2M pH 7.4 phosphate buffer. 1 ml of human plasma, preheated to 37° C., was added into the mixture. The mixture was kept in a water bath at 37° C., and at every 2 min intervals 0.2 ml of samples were withdrawn and added to 0.4 ml of methanol to precipitate the plasma protein. The samples were centrifuged for 5 min and analyzed by HPLC.

[5] = test system: human breast cancer cells (BCAP-37); experiment: Antitumor activity against human breast cancer cells implanted into nude mice; format: in vivo, nude mice (BALB); conditions: 50 μl of 1% in 0.2M pH 7.4 phosphate buffer, topically to implanted area twice per day from day 3; control 100% incidence
Excerpt: For evaluation of antitumor activity of these prodrugs, human breast cancer cells (BCAP-37) were implanted into nude mice (BALB). […] The average weight of the treated group was 25 grams and that of the control group was 21 grams.

[6] = test system: Lesions similar to psoriasis induced by Malassezia; experiment: Malassezia-induced lesions similar to psoriasis on rabbit skin; format: in vivo, Chinese white rabbits; conditions: 200 μl of 0.05% aqueous solution, topical twice per day, 3 hours after Malassezia; control lesions became worse
Excerpt: Heavy suspensions of Malassezia [Rosenberg, E. W., et al., Mycopathologia, 72, 147-154 (1980)] were applied to shaved skin on the backs of Chinese white rabbits (n=4×10) twice (at 7 am and 7 pm respectively) per day for 2 weeks. […] The control group was only applied with Malassezia.

[7] = parent compound, 5% suspension in pH 7.4 phosphate buffer (0.2 M), isolated human skin, Franz cells, n=5
[8] = 10 mg/kg per day, transdermally

In vitro Penetration Rate (apparent flux) of HPPs ([1]; pH 7.4): 1.21 mg/cm^2/h
Half life of HPPs in plasma [4]: 20 ± 1 min
Structure (SMILES): CC1=C(/C=C/C(C)=C/C=C/C(C)=C/COC(=O)CN(C)C)C(C)(C)CCC1.Cl [retinyl N,N-dimethyl-2-aminoacetate·HCl]
signs of irritative effect or discomfort [3]: None of any signs of irritative effect or discomfort

solubility in water (Solubility in water): 30 mg/mL
In vitro Penetration Rate (apparent flux) of HPPs ([1]; pH 7.4): 0.85 mg/cm^2/h
Half life of HPPs in plasma [4]: 13 ± 1 min
Structure (SMILES): Br.CCN(CC)CCOC(=O)\C=C(C)/C=C/C=C(C)/C=C/C1=C(C)CCCC1(C)C [N,N-diethylaminoethyl 13-cis-retinoate·HBr]
signs of irritative effect or discomfort [3]: None of any signs of irritative effect or discomfort

In vitro Penetration Rate (apparent flux) of Parent compounds ([1]; human, 5 %, pH 7.4): 0.005 mg/cm^2/h
Structure (SMILES): CC1=C(/C=C/C(C)=C/C=C/C(C)=C/CO)C(C)(C)CCC1 [vitamin A (retinol), retinol]

In vitro Penetration Rate (apparent flux) of HPPs ([1]; pH 7.4): 1.25 mg/cm^2/h
Half life of HPPs in plasma [4]: 11 ± 1 min
Structure (SMILES): Br.CCN(CC)CCOC(=O)/C=C(C)/C=C/C=C(C)/C=C/C1=C(C)CCCC1(C)C [N,N-diethylaminoethyl all-trans-retinoate·HBr]
signs of irritative effect or discomfort [3]: None of any signs of irritative effect or discomfort

More lines, now with the values behind:

Structure (SMILES): CC1=C(/C=C/C(C)=C\C=C\C(C)=C\C(=O)O)C(C)(C)CCC1 [9-cis-retinoic acid (alitretinoin), 9-cis-retinoic acid, reference compound]
In vitro Penetration Rate (apparent flux) of Parent compounds [1, 7]: 0.005 mg/cm^2/h
None Disease Rate at day 160 ([2]; 5 mg/kg per day, orally): 1/7
Life Elongation Rate ([2]; 5 mg/kg per day, orally): 144%
Survival Period ([2]; 5 mg/kg per day, orally): 45.5 ± 2.3 days
None Disease Rate at day 160 ([2]; 10 mg/kg per day, orally): 3/7
Life Elongation Rate ([2]; 10 mg/kg per day, orally): 207%
Survival Period ([2]; 10 mg/kg per day, orally): 65.2 ± 4.1 days

Structure (SMILES): Br.CCN(CC)CCOC(=O)/C=C(C)/C=C/C=C(C)\C=C\C1=C(C)CCCC1(C)C [N,N-diethylaminoethyl 9-cis-retinoate·HBr]
solubility in water (Solubility in water): 30 mg/mL
signs of irritative effect or discomfort [3]: None of any signs of irritative effect or discomfort
Half life of HPPs in plasma [4]: 12 ± 1 min
tumor seen after 20 days [5]: none of tumor was seen
lesions 10 days after application of Malassezia and HPP [6]: resolved

Structure (SMILES): C=C(c1ccc(C(=O)O)cc1)c1cc2c(cc1C)C(C)(C)CCC2(C)C [bexaroten (Targretin ®), reference compound]
apparent flux value of parent drug ([1]; lowest detectable flux 1 μg/cm^2/h, considered not detectable): 1 μg/cm^2/h
In vitro Penetration Rate (apparent flux) of Parent compounds [1, 7]: 0.001 mg/cm^2/h
None Disease Rate at day 160 ([2]; 5 mg/kg per day, orally): 3/7
Life Elongation Rate ([2]; 5 mg/kg per day, orally): 205%
Survival Period ([2]; 5 mg/kg per day, orally): 64.5 ± 3.7 days
None Disease Rate at day 160 ([2]; 10 mg/kg per day, orally): 5/7
Life Elongation Rate ([2]; 10 mg/kg per day, orally): 302%
Survival Period ([2]; 10 mg/kg per day, orally): 95.2 ± 3.9 days

Structure (SMILES): C=C(c1ccc(C(=O)OCCN(CC)CC)cc1)c1cc2c(cc1C)C(C)(C)CCC2(C)C.Cl [N,N-diethylaminoethyl 4-[1-(5,6,7,8-tetrahydro-3,5,5,8,8-pentamethyl-2-naphthalenyl)ethenyl]benzoate·HCl]
In vitro Penetration Rate (apparent flux) of HPPs ([1]; pH 7.4): 0.35 mg/cm^2/h
signs of irritative effect or discomfort [3]: None of any signs of irritative effect or discomfort
Half life of HPPs in plasma [4]: 15 ± 1 min
tumor seen after 20 days [5]: none of tumor was seen

Structure (SMILES): C=C(c1ccc(C(=O)OCN2CCCC2)cc1)c1cc2c(cc1C)C(C)(C)CCC2(C)C.Cl
None Disease Rate at day 160 ([2]; 5 mg/kg per day, transdermally): 5/7
Life Elongation Rate ([2]; 5 mg/kg per day, transdermally): 306%
Survival Period ([2]; 5 mg/kg per day, transdermally): 96.5 ± 4.4 days
None Disease Rate at day 160 [2, 8]: 6/7
Life Elongation Rate [2, 8]: 529%
Survival Period [2, 8]: 166.5 ± 5.4 days

Structure (SMILES): CC1=C(/C=C/C(C)=C/C=C/C(C)=C\C(=O)O)C(C)(C)CCC1 [13-cis-retinoic acid (isotretinoin), 13-cis-retinoic acid]
In vitro Penetration Rate (apparent flux) of Parent compounds [1, 7]: 0.005 mg/cm^2/h

Structure (SMILES): CC1=C(/C=C/C(C)=C/C=C/C(C)=C/C(=O)O)C(C)(C)CCC1 [all-trans-retinoic acid (tretinoin), all-trans-retinoic acid, reference compound]
In vitro Penetration Rate (apparent flux) of Parent compounds [1, 7]: 0.005 mg/cm^2/h
None Disease Rate at day 160 ([2]; 5 mg/kg per day, orally): 0/7
Life Elongation Rate ([2]; 5 mg/kg per day, orally): 158%
Survival Period ([2]; 5 mg/kg per day, orally): 49.7 ± 3.6 days
None Disease Rate at day 160 ([2]; 10 mg/kg per day, orally): 2/7
Life Elongation Rate ([2]; 10 mg/kg per day, orally): 249%
Survival Period ([2]; 10 mg/kg per day, orally): 78.5 ± 3.7 days

Structure (SMILES): Br.CC1=C(/C=C/C(C)=C/C=C/C(C)=C/C(=O)OCCN2CCCCC2)C(C)(C)CCC1
None Disease Rate at day 160 ([2]; 5 mg/kg per day, transdermally): 4/7
Life Elongation Rate ([2]; 5 mg/kg per day, transdermally): 278%
Survival Period ([2]; 5 mg/kg per day, transdermally): 87.8 ± 3.4 days
None Disease Rate at day 160 [2, 8]: 5/7
Life Elongation Rate [2, 8]: 429%
Survival Period [2, 8]: 135.2 ± 5.9 days
lesions 10 days after application of Malassezia and HPP [6]: resolved

Structure (SMILES): Br.CC1=C(/C=C/C(C)=C\C=C\C(C)=C\C(=O)OCC2CCCN2)C(C)(C)CCC1 (stereo not drawn) [9-cis-retinoic acid 2-pyrrolidinemethyl ester·HBr]
None Disease Rate at day 160 ([2]; 5 mg/kg per day, transdermally): 3/7
Life Elongation Rate ([2]; 5 mg/kg per day, transdermally): 230%
Survival Period ([2]; 5 mg/kg per day, transdermally): 72.5 ± 4.6 days
None Disease Rate at day 160 [2, 8]: 5/7
Life Elongation Rate [2, 8]: 385%
Survival Period [2, 8]: 121.2 ± 4.8 days

Structure (SMILES): Br.CC1=C(/C=C/C(C)=C\C=C\C(C)=C\C(=O)OCCN2CCCCC2)C(C)(C)CCC1 [9-cis-retinoic acid 1-piperidineethyl ester·HBr]
In vitro Penetration Rate (apparent flux) of HPPs ([1]; HPP, 5% solution in pH 7.4 phosphate buffer (0.2 M), isolated human skin, Franz cells, n=5): 0.67 mg/cm^2/h
